Test results as given in a melting point compilation (Tetko et al.).

Row | Structure (SMILES) | melting point [°C]
1 | Cc1csc(N)c1-c1nc2ccccc2s1 | 111 to 112
2 | Cc1sc2ncnc(Cl)c2c1C | 112 to 113
3 | Oc1cc2c(cc1O)Cc1cc(O)c(O)cc1Cc1cc(O)c(O)cc1C2 | 287 to 289
4 | Sc1c(Cl)cccc1Cl | 45 to 50
5 | O=S(=O)(O)C(F)(F)F | < 25
6 | O=S(=O)(Cl)c1cc2ccccc2o1 | 79 to 81
7 | O=C(Nc1cccnc1Cl)c1ccc(Cl)cc1Cl | 148 to 150
8 | O=[N+]([O-])c1cc(Cl)cc(Cl)c1O | 122
9 | CC(=O)Nc1cc(N=Nc2ccccc2)c(C)c(NC(C)=O)c1 | 255
10 | Cn1cnc(C(=O)Oc2c(F)c(F)c(F)c(F)c2F)c1 | 131 to 132
11 | Nc1ccc(Sc2ccc(N)cc2)cc1 | 108
12 | Cc1nc2sc3c(c2c(=O)n1NC(=O)c1ccccc1Cl)CCCC3 | 244 to 246
13 | Nc1nc(Cl)c2ncn(C3OC(CO)C(O)C3O)c2n1 (stereo unspecified) | 166 to 167
14 | Cc1cc(C(F)(C(F)(F)F)C(F)(F)F)ccc1NC(=O)c1cccc(I)c1C(=O)NC(C)(C)CS(C)(=O)=O | 218
15 | CC12CCC(O)CC1CCC1C2CCC2(C)C1CCC2(C)O (stereo unspecified) | 164
16 | N#CCCSCCC#N | 24 to 25
17 | Nc1ccc2c(c1)C(=O)OC21c2ccc(O)cc2Oc2cc(O)ccc21 | 223
18 | CS(=O)(=O)c1ccc(C=O)cc1 | 155 to 161
19 | O=[N+]([O-])c1ccc(NN=C2c3ccccc3C2Cl)c([N+](=O)[O-])c1 (stereo unspecified) | 228

Row | Structure (SMILES) | melting point [°C]
20 | Cc1c(C)c(C)c2c(c1C)CC1C=CC=CN1C2=O (stereo unspecified) | 139
21 | COc1ccc(NC(=O)C(C(F)(F)F)C(F)(F)F)cc1 | 185 to 187
22 | COc1ccc(Nc2nc(N)nnc2-c2ccccc2)cc1 | 293
23 | Cc1cc2c(nn1)CCc1nonc1-2 | 143 to 145
24 | COc1cc(Br)cc(C=O)c1O | 129 to 131
25 | OCC1OC(O)CC(O)C1O (stereo unspecified) | 150
26 | O=C(NC(CO)(Cc1ccccc1)C(=O)O)c1ccccc1 (racemic) | 160 to 162
27 | COc1ccc(C(=O)c2noc(-c3ccccc3)c2S(=O)(=O)c2ccccc2)cc1 | 161
28 | CCC(C)(S(=O)(=O)CC)S(=O)(=O)CC | 76
29 | Nc1ccc(N)cc1 | 146
30 | O=C(O)CN(CC(=O)O)c1ccccc1OCCOc1ccccc1N(CC(=O)O)CC(=O)O | 177 to 179
31 | NC(=O)C(=O)O | 210
32 | CN(C)c1ccc(/C=C2\C(=O)C3CCC(C)(C2=O)C3(C)C)cc1 (stereo unspecified) | 152 to 153
33 | O=Cc1c(F)cc(O)cc1F | 181
34 | c1ccc2c(c1)NC1(CCCCC1)O2 | 243
35 | COC(=O)CC(=O)CCl | 14 to 16
36 | OCCN(CCO)CCCc1ccc(COc2ccccc2)cc1 | 63 to 64
37 | Nc1nsc(SCc2ccccc2)n1 | 120 to 121
38 | CC(C)Oc1cccc(NC(=O)c2ccccc2C(F)(F)F)c1 | 105

Row | Structure (SMILES) | melting point [°C]
39 | O=C(c1ccccc1)c1ccccc1NC(=O)[C@@H]1CCCN1Cc1ccccc1 | 100 to 103
40 | Cc1nc(/C(C#N)=N/Nc2ccccc2[N+](=O)[O-])sc1/N=N/c1ccccc1 | 210
41 | COc1cc(I)c(OC)cc1Cl | 115 to 116
42 | O=S(=O)(Cl)c1ccc(Br)c(Br)c1 | 34
43 | O=C(O)c1ccccc1C(=O)c1ccc(F)cc1 | 140 to 141
44 | COc1ccc(S(=O)(=O)Cl)cc1OC | 68
45 | Cc1n[nH]cc1-c1ccccc1 | 142
46 | Cc1cnc(N)s1 | 97
47 | O=C(CCl)NCc1ccc2c(c1)OCO2 | 91.4 to 93.8
48 | CC(=O)c1cc2c(cc1Br)OCCCO2 | 56 to 58
49 | O=C1CCCN1c1ccc(C(F)(F)F)cc1 | 134 to 136
50 | Fc1ccc(C=Nn2c(C(F)(F)F)n[nH]c2=S)cc1 | 276
51 | COc1cccc2sc(N)nc12 | 156
52 | O=C(Cl)c1ccc2occc2c1 | 67 to 68
53 | COc1ccc(-c2nn(-c3ccccc3)cc2CNc2ccc(F)c(Cl)c2)cc1 | 117
54 | Cc1cnc(Br)c(N)c1 | 105
55 | O=C=Nc1ccccc1[N+](=O)[O-] | 41
56 | CN1CCN(c2cccc(N)c2)CC1 | 98 to 99
57 | O=C(O)CSc1cccc2cccc(Cl)c12 | 156

Next, values leading:

Row | melting point [°C] | Structure (SMILES)
58 | 142 | COC(=O)C1(C(=O)OC)Cc2ccc(OC)cc2C(=O)O1
59 | 98 to 100 | CC(C)(C)c1ccc(N)c(N)c1
60 | 40 | CCCCCCCCCCCCCCCCCCCc1ccccc1
61 | 57 | CCCCCCCCCCCCCCCCCC(=O)OCCCCCCCCCCCCCCCC
62 | 106 | Cc1ccccc1NN=C1C(=O)OC(C)(C)OC1=O
63 | 159 | CSc1nnc(C(C)(C)C)c(=O)n1N=CC(C)C
64 | 83 to 85 | O=C1c2ccc([N+](=O)[O-])cc2C(=O)N1CCCCCCBr
65 | 55 to 60 | CCN(CCO)S(=O)(=O)C(F)(F)C(F)(F)C(F)(F)C(F)(F)C(F)(F)C(F)(F)C(F)(F)C(F)(F)F
66 | 127 | CCC1(O)CCC2(C)C(CCC3C2CCC2(C)C3CCC23OCCO3)C1 (stereo unspecified)
67 | 70 | CC(CC(=O)c1ccccc1)c1ccccc1 (stereo unspecified)
68 | 179 | CN(C)CCc1c[nH]c2ccc(Cn3cncn3)cc12
69 | 190 | CC(CCc1ccccc1)NCC(O)c1ccc(O)c(C(N)=O)c1 (stereo unspecified)
70 | 3 | CCCCCCCCCCCCc1ccccc1
71 | 42 | CSc1ccc(CO)cc1
72 | -44 | COCCOCCOCCO
73 | 113 to 115 | CCN(CC)C(=O)c1[nH]c(C)c(C)c1C
74 | 84 | C#CCOc1ccc(N)cc1C(=O)NCCCC

Row | melting point [°C] | Structure (SMILES)
75 | -81 | CCCC(O)CC(C)C (stereo unspecified)
76 | -116 | CCCCC(C)C(C)C (stereo unspecified)
77 | 188 to 189 | Cc1nc(NC(=O)NS(=O)(=O)c2cccs2)nc(C)c1C
78 | 25 | C=CCCCCCCC1CO1 (stereo unspecified)
79 | 51 to 55 | C[C@H](O)C(N)=O
80 | 132 to 134 | Cc1cc(C)c(S(=O)(=O)n2cnc([N+](=O)[O-])n2)c(C)c1
81 | 87 to 89 | CCOC(=O)c1sc(-c2ccc(C(F)(F)F)cc2)nc1C
82 | 33 to 35 | CCCCCCCCCCc1ccc(C(C)=O)cc1
83 | 193 | CNc1ccc(N)c2c1C(=O)c1ccccc1C2=O
84 | 177 | Cc1cc(N=Nc2ccc(N)cc2)c(C(C)C)cc1N=Nc1ccc(N)cc1
85 | 118 | CC(C)(C)OC(=O)N[C@@H](Cc1ccc(Br)cc1)C(=O)O
86 | 112 | CC(=O)c1ccc(C(C)=O)cc1
87 | 8.5 | CCCCCCCCCCCC(=O)OCc1ccccc1
88 | 138 to 139 | CC(C)(C)OC(=O)N1CCN(CCC(=O)O)CC1
89 | 86 | CC(C)Cc1ccc(CC(=O)O)cc1
90 | 86 to 87 | COC(=O)c1scc(C)c1N
91 | 96 to 99 | CC(C)(C)c1cc(O)c(O)c(C(C)(C)C)c1
